Source: ChEMBL document CHEMBL1201862, “PubChem BioAssay data set” (2004)
“And” between values parts separate entries of the source, which are not always exact repeats. Equal entries are not always repeated. The source made the active and inactive calls.

Tests used:
[1] = biological target: T1, Aminopeptidase N (Plasmodium falciparum FcB1/Columbia, UniProt O96935); test: malaria alanyl aminopeptidase activity blockers – biochemical, fluorogenic H-Leu-NHMec substrate, 1536-well (AID 1445); design: species or system Plasmodium falciparum 3D7, 3D7
T1 sequence (O96935 whole entry): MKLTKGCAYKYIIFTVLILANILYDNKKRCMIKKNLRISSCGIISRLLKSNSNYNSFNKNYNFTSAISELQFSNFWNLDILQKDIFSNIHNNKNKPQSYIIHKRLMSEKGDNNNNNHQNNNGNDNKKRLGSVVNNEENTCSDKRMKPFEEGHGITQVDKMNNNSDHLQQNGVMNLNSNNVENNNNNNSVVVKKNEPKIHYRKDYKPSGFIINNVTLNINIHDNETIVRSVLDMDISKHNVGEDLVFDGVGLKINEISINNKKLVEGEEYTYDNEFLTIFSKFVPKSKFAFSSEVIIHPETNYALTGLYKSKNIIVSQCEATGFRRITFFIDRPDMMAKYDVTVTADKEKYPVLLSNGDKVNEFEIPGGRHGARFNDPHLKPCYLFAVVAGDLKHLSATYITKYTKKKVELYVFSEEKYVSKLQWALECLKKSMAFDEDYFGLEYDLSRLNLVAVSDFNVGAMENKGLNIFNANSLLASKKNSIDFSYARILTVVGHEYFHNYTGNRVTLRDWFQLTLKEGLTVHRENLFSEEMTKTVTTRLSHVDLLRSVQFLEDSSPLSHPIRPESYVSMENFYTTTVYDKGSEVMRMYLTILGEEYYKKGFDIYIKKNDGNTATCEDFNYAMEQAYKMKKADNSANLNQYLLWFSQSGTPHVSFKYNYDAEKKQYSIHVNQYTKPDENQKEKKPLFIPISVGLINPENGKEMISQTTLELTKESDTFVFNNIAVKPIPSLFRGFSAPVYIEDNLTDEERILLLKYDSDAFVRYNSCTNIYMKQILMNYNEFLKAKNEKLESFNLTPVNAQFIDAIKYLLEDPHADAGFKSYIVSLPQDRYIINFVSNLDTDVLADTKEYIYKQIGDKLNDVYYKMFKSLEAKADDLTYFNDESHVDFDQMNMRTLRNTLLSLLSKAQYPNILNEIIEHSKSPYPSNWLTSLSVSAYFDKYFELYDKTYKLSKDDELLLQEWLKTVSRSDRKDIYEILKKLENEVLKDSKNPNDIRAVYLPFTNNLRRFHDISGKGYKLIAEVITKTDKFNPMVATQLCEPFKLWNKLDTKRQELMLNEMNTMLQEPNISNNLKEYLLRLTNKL

[2] = cells; assay type: functional
[3] = biological target: Kallikrein-7 (Homo sapiens, UniProt P49862); test: Fluorescence Intensity-based biochemical primary high throughput dose response assay to identify activators of kallikrein-7 (K7) zymogen.
Chain of Kallikrein-7 (P49862 whole entry, the tested form may be a part): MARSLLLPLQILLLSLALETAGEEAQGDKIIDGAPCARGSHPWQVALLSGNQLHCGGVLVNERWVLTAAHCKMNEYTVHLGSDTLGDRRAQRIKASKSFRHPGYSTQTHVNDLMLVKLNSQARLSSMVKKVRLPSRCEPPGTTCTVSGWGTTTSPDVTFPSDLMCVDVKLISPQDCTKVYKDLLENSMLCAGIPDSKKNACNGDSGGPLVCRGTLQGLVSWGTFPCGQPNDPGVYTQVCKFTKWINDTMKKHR

[4] = inhibition of Env-driven cell fusion – HIV entry, plate reader, dry powder, dose response (AID 687023); assay type: functional, cell-based
[5] = viability loss in CEM21 cells – cell-based, plate reader, dry powder, cytotoxicity control, dose response (AID 687026); assay type: functional
[6] = antimalarial activity against Dd2 parasites – SYBR Green fluorescence, erythrocytes, dry powder, set 2, dose response (AID 1159574); assay type: functional, cell-based
[7] = glucagon-like peptide-1 release potency in STC-1, concentration-response, half-maximal inhibitory concentration in the STC-1 line (AID 1117345); assay type: functional, cell-based
[8] = Potency on glucagon-like peptide 1 release, dose-response in NCI-H716 cell line, half maximal inhibitory concentration (AID 1117344); assay type: functional, cell-based
[9] = luciferase reporter signal suppression in cells – H4 neuroglioma cells, luminescence, dose response (AID 1990); assay type: functional, cell-based
[10] = test system: Streptococcus sp. 'group A'; test: Streptococcus pyogenes SK(-)GAS viability under kanamycin – luminescence, BacTiterGlo, confirmation, counter-screen for streptokinase expression inhibitor project, dose response (AID 1900); assay type: functional, organism-based
[11] = Luminescence Cell-Based Dose Response HTS to Identify Inhibitors of 5'UTR Stem-Loop Driven Prion Protein mRNA Translation in H4 Neuroglioblastoma Cells. [Related pubchem assays: 1827 (Project Summary), 1813 (Primary HTS)]; assay type: functional
[12] = alpha-synuclein stem-loop luciferase translation blockers – H4 neuroglioma cells, luminescence, confirmation (AID 1988); assay type: functional, cell-based
[13] = biological target: T2, Streptokinase A (Streptococcus pyogenes serotype M1, UniProt P10520); test: viability-normalized secreted streptokinase activity reduction – plasminogen activation absorbance, OD405, dose response (AID 1914); assay type: functional, Streptococcus pyogenes M1 GAS;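 also: secreted streptokinase activity via plasminogen activation per viability signal from cell pellet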
T2 sequence (P10520 whole entry): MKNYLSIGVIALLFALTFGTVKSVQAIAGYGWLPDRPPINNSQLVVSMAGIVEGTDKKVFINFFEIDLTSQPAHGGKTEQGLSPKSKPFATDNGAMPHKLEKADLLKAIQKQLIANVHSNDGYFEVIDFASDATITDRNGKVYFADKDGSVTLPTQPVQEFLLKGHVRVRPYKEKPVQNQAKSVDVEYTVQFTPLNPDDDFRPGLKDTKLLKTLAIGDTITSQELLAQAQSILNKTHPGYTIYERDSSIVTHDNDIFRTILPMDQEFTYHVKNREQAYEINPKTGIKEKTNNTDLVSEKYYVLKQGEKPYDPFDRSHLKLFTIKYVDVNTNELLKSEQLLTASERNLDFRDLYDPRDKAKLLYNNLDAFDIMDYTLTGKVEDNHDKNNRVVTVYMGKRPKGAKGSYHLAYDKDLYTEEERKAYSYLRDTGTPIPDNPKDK

[14] = biological target: Ephrin type-A receptor 4 (Mus musculus, UniProt Q03137); test: EphA4 ligand-binding antagonists – biochemical, colorimetric, mouse EphA4, primary screen (AID 689); assay type: functional
Chain of Ephrin type-A receptor 4 (Q03137 whole entry): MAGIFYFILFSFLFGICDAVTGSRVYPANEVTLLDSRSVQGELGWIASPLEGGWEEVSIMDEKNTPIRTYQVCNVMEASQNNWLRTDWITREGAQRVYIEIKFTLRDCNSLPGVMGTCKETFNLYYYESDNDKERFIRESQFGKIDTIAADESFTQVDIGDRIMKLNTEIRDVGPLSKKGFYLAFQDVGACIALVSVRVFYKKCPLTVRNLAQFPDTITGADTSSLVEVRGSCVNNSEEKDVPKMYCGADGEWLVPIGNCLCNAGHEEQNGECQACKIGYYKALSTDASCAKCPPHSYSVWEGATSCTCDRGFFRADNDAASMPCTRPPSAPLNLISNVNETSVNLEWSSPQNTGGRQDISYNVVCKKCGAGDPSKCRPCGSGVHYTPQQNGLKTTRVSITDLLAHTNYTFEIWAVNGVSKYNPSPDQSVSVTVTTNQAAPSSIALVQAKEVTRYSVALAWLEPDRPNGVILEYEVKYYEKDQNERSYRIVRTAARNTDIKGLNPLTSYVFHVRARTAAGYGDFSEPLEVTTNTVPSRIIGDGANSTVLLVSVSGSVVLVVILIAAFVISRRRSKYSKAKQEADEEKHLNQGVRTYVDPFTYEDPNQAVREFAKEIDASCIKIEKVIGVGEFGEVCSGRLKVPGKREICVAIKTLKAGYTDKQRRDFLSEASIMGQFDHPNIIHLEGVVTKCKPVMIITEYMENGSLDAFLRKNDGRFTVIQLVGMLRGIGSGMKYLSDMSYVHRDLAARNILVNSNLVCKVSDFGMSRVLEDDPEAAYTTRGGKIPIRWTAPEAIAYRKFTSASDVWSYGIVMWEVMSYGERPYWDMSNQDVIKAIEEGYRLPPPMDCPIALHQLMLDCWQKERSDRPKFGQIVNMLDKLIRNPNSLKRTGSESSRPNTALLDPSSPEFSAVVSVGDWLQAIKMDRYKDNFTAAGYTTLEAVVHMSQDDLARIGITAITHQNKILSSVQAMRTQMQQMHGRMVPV

[15] = test system: Streptococcus; test: GAS UMAA2166 growth inhibition – luminescence, BacTiterGlo, counter-screen for streptokinase expression inhibitor project, dose response (AID 1915); assay type: functional, organism-based;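 also: potency for reduction of bacterial viability or growth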
[16] = biological target: T3, Heat shock factor protein 1 (Mus musculus, UniProt P38532); test: enhancement of HSF1-driven luciferase signal – cell-based, NIH3T3, luminescence, dose retest, confirmation (AID 435004); assay type: functional;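 also: stress induced by proteasome inhibitor MG132 added 30 min after compound; luciferase reporter driven by HSF1 response element in NIH3T3 cells; actives raise luminescence as potentiators of the MG132 stress response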
T3 sequence (P38532 whole entry): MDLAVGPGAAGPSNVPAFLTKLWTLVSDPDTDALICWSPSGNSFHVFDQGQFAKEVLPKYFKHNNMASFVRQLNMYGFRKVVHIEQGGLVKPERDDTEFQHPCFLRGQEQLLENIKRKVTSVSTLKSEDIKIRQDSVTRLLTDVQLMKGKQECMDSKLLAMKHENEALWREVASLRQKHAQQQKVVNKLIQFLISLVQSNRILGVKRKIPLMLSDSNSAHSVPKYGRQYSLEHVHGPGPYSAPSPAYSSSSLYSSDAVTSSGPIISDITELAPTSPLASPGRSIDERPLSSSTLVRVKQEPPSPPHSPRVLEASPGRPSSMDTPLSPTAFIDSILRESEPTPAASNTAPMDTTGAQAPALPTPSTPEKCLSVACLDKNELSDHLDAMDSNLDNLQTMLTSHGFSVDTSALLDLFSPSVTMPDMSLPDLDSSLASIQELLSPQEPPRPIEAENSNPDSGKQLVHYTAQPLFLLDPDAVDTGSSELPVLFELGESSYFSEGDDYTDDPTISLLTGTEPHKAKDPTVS

[17] = biological target: Heat shock protein HSP 90-alpha (Homo sapiens, UniProt P07900); assay type: functional, organism-based
[18] = test system: Vero; test: viability of Vero cells under compound – cytotoxicity control for flavivirus capping enzyme inhibitors (AID 588742); assay type: functional; settings: Chlorocebus sabaeus
[19] = IC50 of Artemis nuclease activity blockers – biochemical, fluorescence intensity, dose response (AID 720701); assay type: functional;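 also: Artemis endonuclease enzyme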
[20] = Dd2 parasite growth inhibition in erythrocytes – SYBR Green, dry powder samples, set 4, dose response (AID 1159572); assay type: functional, cell-based
[21] = cytotoxicity in HEK293 background cells – cell-based, dry powder, set 2, counter-screen for EBV LMP1 inhibitor project, dose response (AID 624374); assay type: functional
[22] = biological target: Paired box protein Pax-8 (Homo sapiens, UniProt Q06710); test: PAX8 transcriptional activity inhibition in RMG-I – RMG-I cells, luciferase, cherry-pick, dose response (AID 687027); assay type: functional, cell-based;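 also: luciferase reporter driven by Pax8 target thyroperoxidase promoter measured by SteadyGlo luminescence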
Chain of Paired box protein Pax-8 (Q06710 whole entry): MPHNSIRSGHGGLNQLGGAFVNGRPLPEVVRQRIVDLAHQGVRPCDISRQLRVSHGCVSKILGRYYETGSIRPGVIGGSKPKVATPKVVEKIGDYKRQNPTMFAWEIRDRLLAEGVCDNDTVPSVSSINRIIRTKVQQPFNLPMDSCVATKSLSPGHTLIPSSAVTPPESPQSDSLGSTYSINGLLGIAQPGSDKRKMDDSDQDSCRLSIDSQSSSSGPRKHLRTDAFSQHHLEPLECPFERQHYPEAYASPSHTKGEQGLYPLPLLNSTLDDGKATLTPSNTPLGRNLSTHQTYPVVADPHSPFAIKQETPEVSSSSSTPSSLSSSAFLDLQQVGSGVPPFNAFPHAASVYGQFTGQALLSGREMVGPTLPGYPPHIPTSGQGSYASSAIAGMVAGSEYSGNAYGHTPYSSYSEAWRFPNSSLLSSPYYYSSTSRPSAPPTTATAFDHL

[23] = inhibitors acting on PAX2 in cells – cell-based, plate reader, dry powder samples, selectivity assay for PAX8 inhibitor project, dose response (AID 743048); assay type: functional;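 also: HEK293 cells carrying a WT1 promoter luciferase reporter driven by expressed Pax2; potency is for inhibition of Pax2 driven reporter signal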
[24] = COV362 cell viability loss – plate reader, dry powder, SA12, cytotoxicity control for PAX8 inhibitor project, dose response (AID 743144); assay type: functional, cell-based
[25] = OVCAR-3 cell viability loss – plate reader, dry powder samples, PAX8 inhibitor project, dose response (AID 743044); assay type: functional, cell-based
[26] = PAX5 cellular inhibition readout – cell-based, plate reader, dry powder samples, selectivity assay for PAX8 inhibitor project, dose response (AID 743047); assay type: functional;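 also: HEK293 cells carrying a Pax5 driven CD19 promoter luciferase reporter; potency of inhibitors that lower reporter luminescence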
[27] = COV434 cell viability loss – plate reader, dry powder, SA7, cytotoxicity control for PAX8 inhibitor project, dose response (AID 743145); assay type: functional, cell-based
[28] = OV-90 cell viability loss – plate reader, dry powder, SA8, PAX8 inhibitor project, dose response (AID 743149); assay type: functional, cell-based
[29] = PAX8-dependent cell viability loss – plate reader, dry powder, dose response (AID 743049); assay type: functional, cell-based
[30] = Dd2 parasite growth inhibition in erythrocytes – SYBR Green, dry powder samples, set 9, dose response (AID 1159568); assay type: functional, cell-based

SMILES: O=C(Oc1c(-c2ccco2)oc2ccccc2c1=O)c1cccnc1
- IC50 [1]: 129 µM (active)
- IC50 [2]: 20.5 µM (active)
- EC50 [3]: 19.6 µM (inactive)

SMILES: COc1ccc(S(=O)(=O)NCc2ccncc2)cc1OC
- AC50 [4]: 25.4 µM (active) and 32 µM (active)
- AC50 [5]: > 70 µM (inactive)

SMILES: COc1cccc(C#Cc2ccc([C@H]3[C@H](CO)N4C(=O)CN(C(=O)Cc5ccccc5)C[C@@H]34)cc2)c1
- AC50 [6]: 10.5 µM (active)

SMILES: Cc1cc(N)c2cc(NC(=O)Nc3ccc4nc(C)cc(N)c4c3)ccc2n1
- IC50 [7]: > 40 µM (inactive)
- IC50 [8]: 34.2 µM (inactive)

SMILES: O=C(/C=C/c1ccccc1)c1cc(Br)ccc(=O)c1O
- EC50 [9]: 11.6 µM (active)
- EC50 [10]: 1.95 µM (active)
- EC50 [11]: > 120 µM (not active)
- EC50 [12]: > 120 µM (not active)
- EC50 [13]: > 150 µM (not active)
- IC50 [14]: 17.3 µM (active)
- EC50 [15]: 7.42 µM (active)
- EC50 [16]: 15.9 µM (active)
- AC50 [17]: 3.01 µM (active)
- CC50 [18]: 5.71 µM (active)
- IC50 [19]: 19.1 µM (active)

SMILES: COc1ccc(NC(=O)N2CCC3(CC2)CN(C(C)=O)[C@@H](CO)c2[nH]c4cc(OC)ccc4c23)cc1
- AC50 [20]: 1.73 µM (active)

SMILES: C[C@@H]1CN([C@@H](C)CO)S(=O)(=O)c2ccc(C#Cc3ccncc3)cc2O[C@H]1CN(C)C(=O)Nc1ccc2c(c1)OCO2
- AbsAC35 [21]: 39.06 µM
- AC50 [22]: 2.44 µM (active)
- AC50 [23]: 22.7 µM (active)
- AC50 [24]: 0.0878 nM (active)
- AC50 [25]: 19.1 µM (active)
- AC50 [26]: 31.1 µM (active)
- AC50 [27]: 0.179 µM (active)
- AC50 [28]: 8.27 µM (active)
- AC50 [29]: 13 µM (active)

SMILES: Cc1noc(C)c1S(=O)(=O)N(C)C[C@@H]1OCCCC[C@@H](C)Oc2ccc(N(C)C)cc2C(=O)N([C@@H](C)CO)C[C@H]1C
- AC50 [30]: 10.6 µM (active)
